The values that follow come from patent publication US4360663A, “Steroid hormone-antitumor derivatives” (Kureha Kagaku Kogyo Kabushiki Kaisha, priority 1978, dated 1982).

Data set [1] can be described thus: Acute toxicity (LD50), ICR-JCL female mice, Litchfield-Wilcoxon graph method. To be noted: mouse, in vivo, one dose, in olive oil, after 7 days. The protocol:
In the measurement of LD50, eight ICR-JCL female mice (5 week age) were used as one group to breed in a transparent polycage, and each drug was dissolved in olive oil and administrated by routes of intraperitoneal injection (i.p.), oral administration (p.o.) and subcutaneous injection (s.c.), to the mice at one dose and then, their value of LD50 by Litchfield-Wilcoxon graph method is obtained after 7 days.
(§1) The tests (1), (2), (3) for various active ingredients were carried out.

In data set [2] the test system is human breast cancer cells having steroid hormone receptor. The experiment in a line: Antitumor test (in vivo), human breast cancer cells implanted in BALB/C-nu/nu mice. The conditions noted are these: tumors excised day 25. Here is the method: Pieces of human breast cancer cells having steroid hormone receptor was subcutaneously implanted under the arm of mice (BALB/C-nu/nu) (5 week age) to form solid tumors. After the solid tumors were established, each dispersion or solution of the active ingredient in olive oil was administered by oral dose or intraperitoneal injection each other day for 10 times or every days for 20 times. Twenty five days from the initial administration, the tumors were excised. Efficiency of inhibition of tumor proliferation was measured from (A) each average weight of excised tumors for 10 mice (the active ingredient was administrated) and (B) each average weight of excised tumors for 10 control mice. [formula]
as §1

SMILES strings stand for the structures.

By LD50 is commonly meant the dose at which mortality reaches 50%. Low values mean greater toxicity, high ones lower toxicity. As to `O=NN(CCCl)C(=O)N[C@H]1C(O)O[C@H](CO)[C@@H](O)[C@@H]1O` (stereo partly shown) [Test No. 1 (Table 18), reference compound], the LD50 at 168 h in data set [1] (ip) is 48 mg/kg; in data set [1] (po), 210 mg/kg. Besides, the “Inhibitory effect of tumor, efficiency” value in data set [2] (i.p., 3 mg/kg) was determined as 18%; in data set [2] (i.p., 10 mg/kg), 58%; in data set [2] (p.o., 10 mg/kg), 13%; in data set [2] (p.o., 40 mg/kg), 60%.
On to `C[C@]12CC[C@@H]3c4ccc(O)cc4CC[C@H]3[C@@H]1CC[C@@H]2OC(=O)COC(=O)[C@H]1OC(O)[C@H](NC(=O)N(CCCl)N=O)[C@@H](O)[C@@H]1O` (stereo partly drawn) [Test No. 2 (Table 18), 3-hydroxy-1,3,5(10)-estratriene-17β-[2-{N'-(2-chloroethyl)-N'-nitrosoureido}-2-deoxy-D-glucuronoyloxy]acetate], for which the LD50 at 168 h in data set [1] (ip) is > 180 mg/kg; in data set [1] (po), > 1000 mg/kg. The “Inhibitory effect of tumor, efficiency” value in data set [2] (i.p., 1 mg/kg) was found to be 90%; in data set [2] (i.p., 3 mg/kg), 92%; in data set [2] (p.o., 10 mg/kg) it was 73%; in data set [2] (p.o., 40 mg/kg), 89%.
For the compound `CN(N=O)C(=O)N[C@H]1C(O)O[C@H](CO)[C@@H](O)[C@@H]1O` (stereo partly drawn) [Test No. 5 (Table 18), 2-(N'--methyl-N'--nitrosoureido)-2-deoxy-D-glucopyranoside, reference compound], the LD50 at 168 h is 264 mg/kg in data set [1] (ip) and > 1000 mg/kg in data set [1] (po). Moreover, the “Inhibitory effect of tumor, efficiency” value was determined as 20% in data set [2] (i.p., 10 mg/kg); 63% in data set [2] (i.p., 50 mg/kg); 69% in data set [2] (p.o., 10 mg/kg); 86% in data set [2] (p.o., 40 mg/kg).
With `O=c1[nH]cc(F)c(=O)[nH]1` [Test No. 8 (Table 17), 5-fluoro-2,4-dioxo-pyrimidine, reference compound], the LD50 at 168 h was 242 mg/kg in data set [1] (ip) and 900 mg/kg in data set [1] (po). Moreover, the “Inhibitory effect of tumor, efficiency” value came out at 30% in data set [2] (i.p., 10 mg/kg); 50% in data set [2] (i.p., 20 mg/kg); 30% in data set [2] (p.o., 15 mg/kg); 60% in data set [2] (p.o., 30 mg/kg).
`C[C@]12CC[C@@H]3c4ccc(OC(=O)c5ccccc5)cc4CC[C@H]3[C@@H]1CC[C@@H]2OC(=O)Cn1cc(F)c(=O)[nH]c1=O` [Test No. 8 (Table 18), 3-benzoyloxy-1,3,5(10)-estratriene-17β-[5-fluoro-2,4-dioxo-pyrimidin-1-yl]acetate]: the LD50 at 168 h was 680 mg/kg in data set [1] (ip) and > 3000 mg/kg in data set [1] (po). Also, the “Inhibitory effect of tumor, efficiency” value in data set [2] (i.p., 15 mg/kg) worked out at 83%; in data set [2] (i.p., 30 mg/kg) it was 90%; in data set [2] (p.o., 15 mg/kg) it was 70%; in data set [2] (p.o., 30 mg/kg), 81%.
With `CC(=O)Oc1ccc2c(c1)CC[C@@H]1[C@@H]2CC[C@]2(C)[C@@H](OC(=O)Cn3cc(F)c(=O)[nH]c3=O)CC[C@@H]12` [Test No. 9 (Table 18), 3-acetoxy-1,3,5(10)-estratriene-17β-[5-fluoro-2,4-dioxo-pyrimidin-1-yl]acetate], the LD50 at 168 h in data set [1] (ip) is 800 mg/kg; in data set [1] (po) it was > 3000 mg/kg. The “Inhibitory effect of tumor, efficiency” value in data set [2] (i.p., 15 mg/kg) turned out to be 84%; in data set [2] (i.p., 30 mg/kg), 93%; in data set [2] (p.o., 15 mg/kg), 72%; in data set [2] (p.o., 30 mg/kg) it was 87%.
Take `CCC(=O)Oc1ccc2c(c1)CC[C@@H]1[C@@H]2CC[C@]2(C)[C@@H](OC(=O)Cn3cc(F)c(=O)[nH]c3=O)CC[C@@H]12` [Test No. 10 (Table 18), 3-propionyloxy-1,3,5(10)-estratriene-17β-[5-fluoro-2,4-dioxo-pyrimidin-1-yl]acetate]: the LD50 at 168 h is 740 mg/kg in data set [1] (ip) and > 3000 mg/kg in data set [1] (po). Besides, the “Inhibitory effect of tumor, efficiency” value in data set [2] (i.p., 15 mg/kg) was 81%; in data set [2] (i.p., 30 mg/kg), 91%; in data set [2] (p.o., 15 mg/kg) it was 72%; in data set [2] (p.o., 30 mg/kg), 83%.
For the compound `CN(Cc1cnc2nc(N)nc(N)c2n1)c1ccc(C(=O)N[C@@H](CCC(=O)O)C(=O)O)cc1` [Test No. 12 (Table 18), 4-amino-N^10 --methylpteroyl glutamate, reference compound], the figures for the LD50 at 168 h in data set [1] (ip) and in data set [1] (po) were 94 mg/kg and 230 mg/kg, respectively. Also, the “Inhibitory effect of tumor, efficiency” value in data set [2] (i.p., 5 mg/kg) is 48%; in data set [2] (i.p., 20 mg/kg), 65%; in data set [2] (p.o., 10 mg/kg), 31%; in data set [2] (p.o., 50 mg/kg), 42%.
In data set [1] (po), `COc1cccc2c1C(=O)c1c(O)c3c(c(O)c1C2=O)C[C@@](O)(C(=O)CO)C[C@@H]3O[C@H]1C[C@H](N)[C@H](O)[C@H](C)O1` [Test No. 13 (Table 18), 3-glycoloyl-1,2,3,4,6,11-hexahydro-3,5,12-trihydroxy-10-methoxy-6,11-dioxo-1-naphthacenyl-3'-amino-2',3',6'-trideoxy-α-L-lyxo-hexapyranoside, reference compound] came in with a median lethal dose (LD50) at 168 h of 730 mg/kg. The “Inhibitory effect of tumor, efficiency” value in data set [2] (i.p., 10 mg/kg) is listed as 20%; in data set [2] (p.o., 10 mg/kg) it was 20%.
On to `COc1cccc2c1C(=O)c1c(O)c3c(c(O)c1C2=O)C[C@@](O)(C(=O)CO)C[C@@H]3O[C@H]1C[C@H](NCC(=O)O[C@H]2CC[C@H]3[C@@H]4CCc5cc(O)ccc5[C@H]4CC[C@]23C)[C@H](O)[C@H](C)O1` [Test No. 14 (Table 18), 3-glycoloyl-1,2,3,4,6,11-hexahydro-3,5,12-trihydroxy-10-methoxy-6,11-dioxo-1-naphthacenyl-3'-[3-hydroxy-1,3,5(10)-estratriene-17β-oxycarbonylmethyl]amino-2',3',6'-trideoxy-α-L-lyxo-hexapyranoside], for which the LD50 at 168 h in data set [1] (po) was > 3000 mg/kg. The “Inhibitory effect of tumor, efficiency” value in data set [2] (p.o., 10 mg/kg) is 63%; in data set [2] (p.o., 50 mg/kg), 71%.
Turning to `COc1cccc2c1C(=O)c1c(O)c3c(c(O)c1C2=O)C[C@@](O)(C(=O)CO)C[C@@H]3O[C@H]1C[C@H](NCC(=O)O[C@H]2CC[C@H]3[C@@H]4CCc5cc(OC(C)=O)ccc5[C@H]4CC[C@]23C)[C@H](O)[C@H](C)O1` [Test No. 15 (Table 18), 3-glycoloyl-1,2,3,4,6,11-hexahydro-3,5,12-trihydroxy-10-methoxy-6,11-dioxo-1-naphthacenyl-3'-[3-acetoxy-1,3,5(10)-estratriene-17β-oxycarbonylmethyl]amino-2',3',6'-trideoxy-α-L-lyxo-hexapyranoside], the LD50 at 168 h in data set [1] (po) is > 3000 mg/kg. The “Inhibitory effect of tumor, efficiency” value in data set [2] (p.o., 10 mg/kg) is 53%; in data set [2] (p.o., 50 mg/kg) it was 79%.
In the case of `CCC(=O)Oc1ccc2c(c1)CC[C@@H]1[C@@H]2CC[C@]2(C)[C@@H](OC(=O)CN[C@H]3C[C@H](O[C@H]4C[C@](O)(C(=O)CO)Cc5c(O)c6c(c(O)c54)C(=O)c4c(OC)cccc4C6=O)O[C@@H](C)[C@H]3O)CC[C@@H]12` [compound 16], the LD50 at 168 h in data set [1] (po) is > 3000 mg/kg. In addition, the “Inhibitory effect of tumor, efficiency” value was determined as 69% in data set [2] (p.o., 10 mg/kg) and 83% in data set [2] (p.o., 50 mg/kg).
`COc1cccc2c1C(=O)c1c(O)c3c(c(O)c1C2=O)C[C@@](O)(C(=O)CO)C[C@@H]3O[C@H]1C[C@H](NCC(=O)O[C@H]2CC[C@H]3[C@@H]4CCc5cc(OC(=O)c6ccccc6)ccc5[C@H]4CC[C@]23C)[C@H](O)[C@H](C)O1` [compound 17]: the LD50 at 168 h in data set [1] (po) is > 3000 mg/kg. Moreover, the “Inhibitory effect of tumor, efficiency” value worked out at 70% in data set [2] (p.o., 10 mg/kg) and 79% in data set [2] (p.o., 50 mg/kg).
With `COc1cccc2c1C(=O)c1c(O)c3c(c(O)c1C2=O)C[C@@](O)(C(C)=O)C[C@@H]3O[C@H]1C[C@H](N)[C@H](O)[C@H](C)O1` [compound 18], the LD50 at 168 h in data set [1] (ip) was 5 mg/kg; in data set [1] (po), 20 mg/kg. Besides, the “Inhibitory effect of tumor, efficiency” value in data set [2] (i.p., 0.5 mg/kg) was determined as 47%; in data set [2] (i.p., 1 mg/kg), 78%; in data set [2] (p.o., 1 mg/kg), 59%.
For `COc1cccc2c1C(=O)c1c(O)c3c(c(O)c1C2=O)C[C@@](O)(C(C)=O)C[C@@H]3O[C@H]1C[C@H](NCC(=O)O[C@H]2CC[C@H]3[C@@H]4CCc5cc(O)ccc5[C@H]4CC[C@]23C)[C@H](O)[C@H](C)O1` [compound 19], the figures for the LD50 at 168 h in data set [1] (ip) and in data set [1] (po) were > 15 mg/kg and > 2000 mg/kg, respectively. Besides, the “Inhibitory effect of tumor, efficiency” value in data set [2] (i.p., 0.1 mg/kg) was found to be 90%; in data set [2] (i.p., 0.5 mg/kg), 99%; in data set [2] (p.o., 1 mg/kg), 72%; in data set [2] (p.o., 5 mg/kg), 85%.
Turning to `C[C@]12CC[C@@H]3c4ccc(OC(=O)c5ccccc5)cc4CC[C@H]3[C@@H]1CC[C@@H]2OC(=O)COCCNc1nc(N2CC2)nc(N2CC2)n1` [compound 20], the LD50 at 168 h in data set [1] (ip) is > 15 mg/kg; in data set [1] (po), > 2000 mg/kg. The “Inhibitory effect of tumor, efficiency” value in data set [2] (i.p., 0.1 mg/kg) is 74%; in data set [2] (p.o., 1 mg/kg), 78%; in data set [2] (p.o., 5 mg/kg), 87%.
